Test results reported in paper PMC6934184, “Selective DNA-PKcs inhibition extends the therapeutic index of localized radiotherapy and chemotherapy” (The Journal of Clinical Investigation, 2019).

Biological target: T1, STK24 (MST3) (Homo sapiens, UniProt Q9Y6E0)
T1 construct: purchased Thermo Fisher Scientific (Life Technologies) SelectScreen
Assay: SelectScreen Z'LYTE
Type: biochemical
Summary of the method: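 Percent values come from Thermo SelectScreen profiling of NU5455, combining activity and binding assays. CSF1R was run in Z'LYTE format at Km app ATP, and CAMK1 in Adapta format with ATP listed at 10.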

T1 sequence (Q9Y6E0 whole entry): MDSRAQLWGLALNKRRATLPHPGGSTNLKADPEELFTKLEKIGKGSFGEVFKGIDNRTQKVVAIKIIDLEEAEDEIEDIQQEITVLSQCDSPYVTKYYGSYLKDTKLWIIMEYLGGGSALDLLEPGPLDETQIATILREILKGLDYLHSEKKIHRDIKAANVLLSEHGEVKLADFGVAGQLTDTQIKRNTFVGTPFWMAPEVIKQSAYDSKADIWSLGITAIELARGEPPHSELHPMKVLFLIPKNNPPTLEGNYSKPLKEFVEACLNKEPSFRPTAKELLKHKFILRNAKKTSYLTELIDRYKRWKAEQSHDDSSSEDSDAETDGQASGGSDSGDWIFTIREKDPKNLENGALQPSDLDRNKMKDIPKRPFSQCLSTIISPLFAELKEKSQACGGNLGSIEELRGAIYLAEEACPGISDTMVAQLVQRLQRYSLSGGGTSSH

Work on `CN(C(=O)CN1CCOCC1)c1ccc2sc3c(-c4cccc5c(=O)cc(N6CC7CCC(C6)O7)oc45)cccc3c2c1` [NU5455] yielded an inhibition at 1 µM of 4.1%.
